# Measurements reported in patent publication US9957247B2, “SecA inhibitors and methods of making and using thereof” (Georgia State University Research Foundation, Inc., priority 2012, dated 2018).
# Read-outs that look alike come from different tables or passages of the source.
# Experiments:
# BsSecA [1] = molecular target: T1, BsSecA (Bacillus subtilis, UniProt P28366); experiment: biochemical; assay type: biochemical, B. subtilis
# EcSecA N68 = EcSecA N68 (Escherichia coli, UniProt P10408); experiment: biochemical; assay type: biochemical, E. coli; conditions: Table 1; read-out: IC50, Intrinsic ATPase, EcSecA N68
# Chain of EcSecA N68 (P10408 1-610): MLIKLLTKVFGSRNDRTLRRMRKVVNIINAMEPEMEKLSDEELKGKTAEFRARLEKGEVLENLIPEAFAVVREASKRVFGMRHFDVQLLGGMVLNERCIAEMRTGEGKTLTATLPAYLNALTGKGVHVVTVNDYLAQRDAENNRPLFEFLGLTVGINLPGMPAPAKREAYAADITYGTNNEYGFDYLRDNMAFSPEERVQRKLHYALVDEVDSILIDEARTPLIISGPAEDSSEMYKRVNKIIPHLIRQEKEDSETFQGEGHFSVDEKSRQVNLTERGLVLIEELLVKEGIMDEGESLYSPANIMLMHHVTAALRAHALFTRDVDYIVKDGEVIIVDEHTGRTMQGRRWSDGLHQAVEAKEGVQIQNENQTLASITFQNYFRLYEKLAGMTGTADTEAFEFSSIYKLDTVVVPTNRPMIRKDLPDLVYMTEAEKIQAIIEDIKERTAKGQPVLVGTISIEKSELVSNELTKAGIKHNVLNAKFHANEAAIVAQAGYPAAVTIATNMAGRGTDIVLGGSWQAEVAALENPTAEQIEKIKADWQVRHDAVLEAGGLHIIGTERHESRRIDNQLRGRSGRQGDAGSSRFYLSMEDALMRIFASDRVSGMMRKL
# BaSecA1 = BaSecA1 (Bacillus anthracis, UniProt Q81X26); experiment: cell-based; conditions: read-out: IC50, Ion Channel activity, BGaSecA 1
# Chain of BaSecA1 (Q81X26 whole entry, looked up): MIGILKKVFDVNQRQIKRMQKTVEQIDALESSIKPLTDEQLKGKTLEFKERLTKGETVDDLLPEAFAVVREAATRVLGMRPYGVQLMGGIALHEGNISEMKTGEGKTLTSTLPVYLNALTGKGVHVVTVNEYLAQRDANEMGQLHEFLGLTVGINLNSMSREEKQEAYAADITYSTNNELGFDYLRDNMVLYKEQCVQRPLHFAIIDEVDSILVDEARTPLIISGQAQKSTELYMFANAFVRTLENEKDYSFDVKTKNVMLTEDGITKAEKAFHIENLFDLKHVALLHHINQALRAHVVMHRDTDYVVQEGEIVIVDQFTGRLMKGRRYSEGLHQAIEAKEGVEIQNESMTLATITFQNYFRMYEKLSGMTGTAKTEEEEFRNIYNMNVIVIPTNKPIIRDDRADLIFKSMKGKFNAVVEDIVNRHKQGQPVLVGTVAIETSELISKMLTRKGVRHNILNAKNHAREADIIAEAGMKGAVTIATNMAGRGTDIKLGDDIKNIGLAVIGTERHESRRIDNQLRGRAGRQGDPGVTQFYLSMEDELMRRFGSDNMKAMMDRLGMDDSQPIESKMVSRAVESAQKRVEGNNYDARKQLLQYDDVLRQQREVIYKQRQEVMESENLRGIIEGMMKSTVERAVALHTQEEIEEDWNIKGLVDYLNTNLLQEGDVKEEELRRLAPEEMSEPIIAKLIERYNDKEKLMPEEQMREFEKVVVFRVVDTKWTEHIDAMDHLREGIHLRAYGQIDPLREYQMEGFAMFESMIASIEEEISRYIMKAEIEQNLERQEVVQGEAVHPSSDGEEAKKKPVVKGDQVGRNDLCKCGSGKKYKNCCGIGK
# PaSecA = PaSecA (Pseudomonas aeruginosa, UniProt Q9LCT3); experiment: cell-based; assay type: cell-based; conditions: IC50, Ion Channel activity, PASecA, Table 1
# BsSecA [2] = molecular target: T1, BsSecA; experiment: cell-based; set-up: species or system B. subtilis; conditions: Table 1; read-out: IC50, Ion Channel activity, BsSecA
# MsSecA = MsSecA (Mycolicibacterium smegmatis, UniProt P71533); experiment: SecA-liposomes ion-channel activity in oocytes, MsSecA; assay type: cell-based; conditions: Table 1
# MtbSecA = MtbSecA (Mycobacterium tuberculosis, UniProt P9WGP5); experiment: cell-based
# Chain of MtbSecA (P9WGP5 whole entry): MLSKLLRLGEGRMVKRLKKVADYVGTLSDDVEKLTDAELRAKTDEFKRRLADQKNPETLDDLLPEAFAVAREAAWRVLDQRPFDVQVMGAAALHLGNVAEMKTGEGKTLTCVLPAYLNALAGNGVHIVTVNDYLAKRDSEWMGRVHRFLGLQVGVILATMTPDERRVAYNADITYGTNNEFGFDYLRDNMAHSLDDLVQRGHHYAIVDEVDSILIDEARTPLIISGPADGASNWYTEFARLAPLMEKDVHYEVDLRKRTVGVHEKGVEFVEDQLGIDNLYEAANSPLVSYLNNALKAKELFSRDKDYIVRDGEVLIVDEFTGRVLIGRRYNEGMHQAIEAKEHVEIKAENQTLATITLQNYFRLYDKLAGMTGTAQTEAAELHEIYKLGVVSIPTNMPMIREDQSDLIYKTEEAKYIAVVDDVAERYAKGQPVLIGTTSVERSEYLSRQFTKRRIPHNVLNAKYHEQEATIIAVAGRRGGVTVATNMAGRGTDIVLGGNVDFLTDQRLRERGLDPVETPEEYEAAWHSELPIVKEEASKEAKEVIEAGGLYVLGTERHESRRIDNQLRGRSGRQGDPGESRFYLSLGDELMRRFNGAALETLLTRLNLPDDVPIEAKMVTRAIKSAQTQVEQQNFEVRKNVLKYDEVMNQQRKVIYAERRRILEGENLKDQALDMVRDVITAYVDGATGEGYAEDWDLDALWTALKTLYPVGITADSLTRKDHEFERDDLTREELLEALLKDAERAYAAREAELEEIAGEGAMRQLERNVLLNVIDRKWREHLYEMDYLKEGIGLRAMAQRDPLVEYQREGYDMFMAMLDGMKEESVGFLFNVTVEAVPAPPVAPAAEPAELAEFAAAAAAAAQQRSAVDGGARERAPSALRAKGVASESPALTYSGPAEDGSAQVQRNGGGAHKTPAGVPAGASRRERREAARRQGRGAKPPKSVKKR
# SpSecA = SpSecA (Streptococcus pyogenes, UniProt Q99Y96); assay type: cell-based; conditions: read-out: IC50, Ion Channel activity, SpSecA
# S. pyogenes, MGAS5005 = experiment: MIC95, S. pyogenes MGAS5005; assay type: cell-based; conditions: Streptococcus pyogenes, MGAS5005; read-out: MIC95, S. pyogenes MGAS5005
# EcSecA [3] = molecular target: T2, EcSecA (Escherichia coli, UniProt P10408); conditions: read-out: IC50, Translocation ATPase, EcSecA; Table 1
# Target sequence in this assay (P0AG99 whole entry): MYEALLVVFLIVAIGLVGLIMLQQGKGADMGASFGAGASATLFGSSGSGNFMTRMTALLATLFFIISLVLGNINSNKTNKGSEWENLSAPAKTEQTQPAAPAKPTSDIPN
# Target sequence in this assay (P10408 whole entry): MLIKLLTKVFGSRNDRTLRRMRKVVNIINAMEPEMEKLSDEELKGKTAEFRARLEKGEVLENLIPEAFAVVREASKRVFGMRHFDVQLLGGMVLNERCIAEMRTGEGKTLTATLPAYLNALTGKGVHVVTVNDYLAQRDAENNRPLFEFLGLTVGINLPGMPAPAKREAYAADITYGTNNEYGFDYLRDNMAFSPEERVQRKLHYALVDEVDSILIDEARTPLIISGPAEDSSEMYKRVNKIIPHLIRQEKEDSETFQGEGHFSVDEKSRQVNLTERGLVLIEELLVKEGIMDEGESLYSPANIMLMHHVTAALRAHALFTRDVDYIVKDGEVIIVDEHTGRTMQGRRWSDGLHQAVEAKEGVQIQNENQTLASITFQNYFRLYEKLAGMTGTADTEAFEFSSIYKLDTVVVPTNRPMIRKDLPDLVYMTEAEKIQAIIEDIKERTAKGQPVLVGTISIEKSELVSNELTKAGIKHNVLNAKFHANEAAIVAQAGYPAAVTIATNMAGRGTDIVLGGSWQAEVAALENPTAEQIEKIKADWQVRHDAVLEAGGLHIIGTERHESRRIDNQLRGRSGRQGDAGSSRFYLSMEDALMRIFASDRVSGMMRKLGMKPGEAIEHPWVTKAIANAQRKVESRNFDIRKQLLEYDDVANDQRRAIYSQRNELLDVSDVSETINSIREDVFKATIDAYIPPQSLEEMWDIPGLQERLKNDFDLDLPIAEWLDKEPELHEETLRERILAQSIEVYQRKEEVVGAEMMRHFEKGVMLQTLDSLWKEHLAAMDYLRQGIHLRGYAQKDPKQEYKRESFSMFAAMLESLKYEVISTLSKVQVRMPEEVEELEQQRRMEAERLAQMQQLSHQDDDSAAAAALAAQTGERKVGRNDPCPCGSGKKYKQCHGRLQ
# Target sequence in this assay (P0AGA2 whole entry, further chain): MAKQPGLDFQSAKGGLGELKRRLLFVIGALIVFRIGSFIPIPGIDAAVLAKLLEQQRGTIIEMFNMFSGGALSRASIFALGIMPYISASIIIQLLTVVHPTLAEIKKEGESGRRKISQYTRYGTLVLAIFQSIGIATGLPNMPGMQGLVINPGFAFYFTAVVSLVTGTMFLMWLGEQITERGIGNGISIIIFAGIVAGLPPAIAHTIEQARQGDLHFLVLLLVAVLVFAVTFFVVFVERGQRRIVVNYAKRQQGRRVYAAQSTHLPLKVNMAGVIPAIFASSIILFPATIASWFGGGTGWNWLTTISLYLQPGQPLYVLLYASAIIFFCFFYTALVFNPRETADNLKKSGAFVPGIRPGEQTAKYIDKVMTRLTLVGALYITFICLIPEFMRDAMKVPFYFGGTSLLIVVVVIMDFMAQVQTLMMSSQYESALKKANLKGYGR
# Target sequence in this assay (P0AG96 whole entry, further chain): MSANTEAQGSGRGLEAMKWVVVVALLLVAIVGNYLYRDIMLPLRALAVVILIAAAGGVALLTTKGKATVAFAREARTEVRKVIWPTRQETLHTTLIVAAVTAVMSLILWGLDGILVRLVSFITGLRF
# EcSecA [4] = molecular target: T2, EcSecA; conditions: read-out: IC50, Ion Channel activity, EcSecA; Table 1
# Target sequence in this assay (P10408 whole entry): as the sequence (P10408 whole entry) above
# SaSecA1 = molecular target: T3, SaSecA1 (Staphylococcus aureus, UniProt O06446); conditions: read-out: IC50, Ion Channel activity, SaSecA1; Table 1
# T3 sequence (O06446 1-843): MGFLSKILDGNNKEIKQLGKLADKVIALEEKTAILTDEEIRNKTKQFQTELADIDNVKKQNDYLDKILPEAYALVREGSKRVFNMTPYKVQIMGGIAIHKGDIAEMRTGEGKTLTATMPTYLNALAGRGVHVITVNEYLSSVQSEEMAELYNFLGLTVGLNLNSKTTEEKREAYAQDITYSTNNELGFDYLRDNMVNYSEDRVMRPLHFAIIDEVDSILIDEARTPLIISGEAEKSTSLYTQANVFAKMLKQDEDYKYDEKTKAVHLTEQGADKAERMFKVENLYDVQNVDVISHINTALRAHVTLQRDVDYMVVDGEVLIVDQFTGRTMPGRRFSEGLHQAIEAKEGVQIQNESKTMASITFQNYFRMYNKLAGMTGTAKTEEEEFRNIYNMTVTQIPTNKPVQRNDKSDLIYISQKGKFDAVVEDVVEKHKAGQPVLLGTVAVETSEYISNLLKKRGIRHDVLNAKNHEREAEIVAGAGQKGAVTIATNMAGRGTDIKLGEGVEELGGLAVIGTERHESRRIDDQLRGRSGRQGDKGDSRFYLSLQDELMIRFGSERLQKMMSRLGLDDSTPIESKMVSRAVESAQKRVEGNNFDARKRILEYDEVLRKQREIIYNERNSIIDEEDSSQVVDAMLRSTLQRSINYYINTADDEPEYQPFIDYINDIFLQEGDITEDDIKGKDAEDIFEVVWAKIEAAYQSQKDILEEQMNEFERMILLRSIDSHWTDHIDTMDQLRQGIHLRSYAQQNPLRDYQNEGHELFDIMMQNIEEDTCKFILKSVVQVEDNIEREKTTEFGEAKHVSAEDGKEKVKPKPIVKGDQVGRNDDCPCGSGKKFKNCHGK
# EcSecA [5] = molecular target: T2, EcSecA; experiment: biochemical; conditions: IC50, Protein Translocation, Table 1
# Target sequence in this assay (P0AG99 whole entry): as the sequence (P0AG99 whole entry) above
# Target sequence in this assay (P10408 whole entry): as the sequence (P10408 whole entry) above
# Target sequence in this assay (P0AGA2 whole entry, further chain): as the sequence (P0AGA2 whole entry, further chain) above
# Target sequence in this assay (P0AG96 whole entry, further chain): as the sequence (P0AG96 whole entry, further chain) above
# S. aureus Mu50 = experiment: Bacteriostatic effect, S. aureus Mu50; conditions: Staphylococcus aureus, MU50, read-out: MIC95 against drug resistant S. aureus Mu50
# BsSecA2 = conditions: read-out: IC50, Intrinsic ATPase, BsSecA2; Table 1
# SaSecA2 = molecular target: T4, SaSecA2 (Staphylococcus aureus, UniProt Q2FUW6); experiment: ATPase activity assay (malachite green), SaSecA2; conditions: IC50, Intrinsic ATPase, SaSecA2, Table 1
# T4 sequence (Q2FUW6 1-796): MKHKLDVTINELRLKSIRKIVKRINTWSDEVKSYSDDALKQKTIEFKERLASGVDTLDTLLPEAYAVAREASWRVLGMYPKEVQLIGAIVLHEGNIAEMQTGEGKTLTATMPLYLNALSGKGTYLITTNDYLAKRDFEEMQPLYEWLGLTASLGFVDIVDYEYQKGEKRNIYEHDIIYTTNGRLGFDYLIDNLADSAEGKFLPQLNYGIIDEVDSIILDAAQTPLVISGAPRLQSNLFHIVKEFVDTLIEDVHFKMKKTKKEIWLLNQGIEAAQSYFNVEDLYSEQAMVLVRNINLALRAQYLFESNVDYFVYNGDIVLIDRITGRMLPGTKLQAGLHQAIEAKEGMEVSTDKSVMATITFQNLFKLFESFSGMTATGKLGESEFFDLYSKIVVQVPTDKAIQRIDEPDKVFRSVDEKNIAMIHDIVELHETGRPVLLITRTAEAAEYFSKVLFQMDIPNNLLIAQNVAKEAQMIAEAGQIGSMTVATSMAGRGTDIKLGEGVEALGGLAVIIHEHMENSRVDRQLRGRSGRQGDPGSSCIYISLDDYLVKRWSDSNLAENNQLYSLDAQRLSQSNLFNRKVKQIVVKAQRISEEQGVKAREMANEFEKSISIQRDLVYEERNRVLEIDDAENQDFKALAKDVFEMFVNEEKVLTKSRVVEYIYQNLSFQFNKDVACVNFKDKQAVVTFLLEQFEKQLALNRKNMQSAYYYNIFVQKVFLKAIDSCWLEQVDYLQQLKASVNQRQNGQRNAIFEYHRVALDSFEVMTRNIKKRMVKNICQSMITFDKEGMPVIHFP
# T1 sequence (P28366 whole entry): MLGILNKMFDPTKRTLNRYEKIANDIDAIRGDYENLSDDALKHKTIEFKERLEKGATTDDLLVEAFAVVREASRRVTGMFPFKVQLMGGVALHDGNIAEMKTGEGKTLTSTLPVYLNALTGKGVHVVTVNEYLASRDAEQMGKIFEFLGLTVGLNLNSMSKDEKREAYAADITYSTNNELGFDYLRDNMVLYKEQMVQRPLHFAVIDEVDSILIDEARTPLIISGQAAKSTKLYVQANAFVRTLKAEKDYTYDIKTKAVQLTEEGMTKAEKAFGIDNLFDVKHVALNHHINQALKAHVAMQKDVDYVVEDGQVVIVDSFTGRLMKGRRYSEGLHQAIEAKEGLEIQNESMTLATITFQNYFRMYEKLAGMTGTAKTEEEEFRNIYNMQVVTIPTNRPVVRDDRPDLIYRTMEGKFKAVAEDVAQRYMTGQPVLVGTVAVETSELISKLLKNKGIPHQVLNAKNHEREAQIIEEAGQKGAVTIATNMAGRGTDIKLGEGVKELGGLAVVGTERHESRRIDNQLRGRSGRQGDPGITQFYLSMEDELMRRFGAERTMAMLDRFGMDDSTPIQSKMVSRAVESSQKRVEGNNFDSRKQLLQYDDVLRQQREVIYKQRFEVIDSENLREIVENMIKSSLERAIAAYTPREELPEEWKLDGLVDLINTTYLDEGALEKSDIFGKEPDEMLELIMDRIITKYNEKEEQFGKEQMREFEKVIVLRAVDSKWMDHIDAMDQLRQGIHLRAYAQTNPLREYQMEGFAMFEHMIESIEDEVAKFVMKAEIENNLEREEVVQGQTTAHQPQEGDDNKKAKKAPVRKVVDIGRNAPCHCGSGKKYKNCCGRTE
compound,measurement,setting,value
CSc1nc(Cl)cc(Sc2nnc(-c3cc(C(F)(F)F)cc(C(F)(F)F)c3)[nH]2)n1 [SCA-107],IC50,BsSecA [1],> 200000 nM
same,IC50,EcSecA N68,30000 nM
same,IC50,BaSecA1,700 nM
same,IC50,PaSecA,1300 nM
same,IC50,BsSecA [2],2100 nM
same,IC50,MsSecA,2500 nM
same,IC50,MtbSecA,2000 nM
same,IC50,SpSecA,700 nM
same,MIC,"S. pyogenes, MGAS5005",0.19 µM
same,IC50,EcSecA [3],28000 nM
same,IC50,EcSecA [4],1600 nM
same,IC50,SaSecA1,600 nM
same,IC50,EcSecA [5],25000 nM
same,MIC,S. aureus Mu50,0.5 µM
same,IC50,BsSecA2,65000 nM
same,IC50,SaSecA2,50000 nM
